ChEMBL document CHEMBL3351528, “Targeting dopamine D3 and serotonin 5-HT1A and 5-HT2A receptors for developing effective antipsychotics: synthesis, biological characterization, and behavioral studies” (J Med Chem, 2014)

Tests used:
Mus musculus [1] = assay: Toxicity in mouse assessed as induction of memory impairment by measuring […] to enter dark compartment at 60 mg/kg, po administered 30 mins before training measured 24 hrs after acquisition trail by passive avoidance test; assay type: organism-based; design: dose 60 mg/kg, route oral; conditions: in vivo
Mus musculus [2] = assay: Toxicity in NMRI mouse assessed as induction of catalepsy up to 90 mg/kg, sc dosed 30 mins before test; assay type: organism-based; design: dose 90 mg/kg, route subcutaneous; conditions: in vivo, 0.5 h
Mus musculus [3] = assay: Toxicity in mouse assessed as induction of memory impairment by measuring […] to enter dark compartment at 60 mg/kg, po administered 30 mins before training by passive avoidance test; assay type: organism-based; design: dose 60 mg/kg, route oral; conditions: in vivo, 0.5 h
D(2) dopamine receptor = D(2) dopamine receptor (Homo sapiens, UniProt P14416)
Sequence of D(2) dopamine receptor (P14416 whole entry): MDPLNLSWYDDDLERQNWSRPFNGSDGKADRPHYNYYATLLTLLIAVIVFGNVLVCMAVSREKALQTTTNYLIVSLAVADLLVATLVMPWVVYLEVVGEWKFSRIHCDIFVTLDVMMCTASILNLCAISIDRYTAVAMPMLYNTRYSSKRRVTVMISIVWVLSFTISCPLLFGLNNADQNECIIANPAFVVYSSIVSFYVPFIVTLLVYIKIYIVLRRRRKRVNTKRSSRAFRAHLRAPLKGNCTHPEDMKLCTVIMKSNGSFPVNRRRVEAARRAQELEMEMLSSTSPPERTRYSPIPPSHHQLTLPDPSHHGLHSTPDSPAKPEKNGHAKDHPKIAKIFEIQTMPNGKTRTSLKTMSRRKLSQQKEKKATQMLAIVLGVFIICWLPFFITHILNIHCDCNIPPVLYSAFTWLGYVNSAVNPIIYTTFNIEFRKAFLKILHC
Description: Binding affinity to dopamine D2 receptor (unknown origin)

[4] = biological target: 5-hydroxytryptamine receptor 2A (Homo sapiens, UniProt P28223)
Sequence of 5-hydroxytryptamine receptor 2A (Homo sapiens, UniProt P28223) (P28223 whole entry): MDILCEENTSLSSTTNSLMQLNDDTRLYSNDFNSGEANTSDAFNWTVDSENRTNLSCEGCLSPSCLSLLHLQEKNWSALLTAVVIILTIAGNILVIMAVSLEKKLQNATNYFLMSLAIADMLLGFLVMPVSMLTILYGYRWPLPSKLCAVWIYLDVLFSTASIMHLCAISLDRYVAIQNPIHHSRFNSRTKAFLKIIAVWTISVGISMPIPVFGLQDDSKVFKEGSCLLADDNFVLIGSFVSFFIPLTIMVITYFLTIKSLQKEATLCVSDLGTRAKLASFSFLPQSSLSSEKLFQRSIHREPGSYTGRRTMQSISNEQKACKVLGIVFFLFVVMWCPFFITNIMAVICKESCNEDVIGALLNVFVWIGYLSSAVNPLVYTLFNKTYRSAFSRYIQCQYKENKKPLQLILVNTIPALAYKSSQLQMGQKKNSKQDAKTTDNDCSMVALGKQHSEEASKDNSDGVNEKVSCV
Description: Binding affinity to 5HT2A receptor (unknown origin)

Mus musculus [5] = assay: Effect on spontaneous locomotor activity in mouse at 30 mg/kg, ip; assay type: ADME, organism-based; design: dose 30 mg/kg, route intraperitoneal; conditions: in vivo
[6] = biological target: T1, Adrenergic receptor alpha-2 (Homo sapiens, UniProt P08913+P18825+P18089); assay: Binding affinity to alpha2 adrenoreceptor (unknown origin); assay type: protein assay
T1 sequence (P08913 whole entry): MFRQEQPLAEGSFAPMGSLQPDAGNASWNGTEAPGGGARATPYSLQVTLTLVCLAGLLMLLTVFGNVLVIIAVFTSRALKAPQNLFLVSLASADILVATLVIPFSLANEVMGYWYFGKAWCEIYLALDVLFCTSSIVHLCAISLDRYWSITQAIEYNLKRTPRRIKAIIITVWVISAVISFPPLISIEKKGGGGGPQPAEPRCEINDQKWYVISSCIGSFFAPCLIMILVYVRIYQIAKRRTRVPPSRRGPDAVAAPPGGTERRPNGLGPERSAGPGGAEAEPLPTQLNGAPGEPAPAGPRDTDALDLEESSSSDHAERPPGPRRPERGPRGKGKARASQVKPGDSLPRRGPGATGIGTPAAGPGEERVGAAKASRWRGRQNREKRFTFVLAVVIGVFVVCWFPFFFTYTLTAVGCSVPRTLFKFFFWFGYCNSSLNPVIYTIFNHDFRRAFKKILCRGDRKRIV
T1 sequence (P18825 whole entry): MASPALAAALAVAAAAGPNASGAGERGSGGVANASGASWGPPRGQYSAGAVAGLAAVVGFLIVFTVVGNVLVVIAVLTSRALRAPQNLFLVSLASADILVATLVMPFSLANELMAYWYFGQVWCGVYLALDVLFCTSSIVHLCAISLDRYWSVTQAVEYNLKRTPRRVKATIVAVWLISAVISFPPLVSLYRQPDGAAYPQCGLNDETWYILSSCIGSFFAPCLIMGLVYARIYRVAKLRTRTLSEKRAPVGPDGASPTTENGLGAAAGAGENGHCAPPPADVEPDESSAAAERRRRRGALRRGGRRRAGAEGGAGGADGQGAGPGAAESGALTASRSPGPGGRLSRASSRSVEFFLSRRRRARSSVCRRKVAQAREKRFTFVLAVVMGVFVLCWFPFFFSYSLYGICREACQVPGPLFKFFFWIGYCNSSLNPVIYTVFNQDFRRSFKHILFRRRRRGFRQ
T1 sequence (P18089 whole entry): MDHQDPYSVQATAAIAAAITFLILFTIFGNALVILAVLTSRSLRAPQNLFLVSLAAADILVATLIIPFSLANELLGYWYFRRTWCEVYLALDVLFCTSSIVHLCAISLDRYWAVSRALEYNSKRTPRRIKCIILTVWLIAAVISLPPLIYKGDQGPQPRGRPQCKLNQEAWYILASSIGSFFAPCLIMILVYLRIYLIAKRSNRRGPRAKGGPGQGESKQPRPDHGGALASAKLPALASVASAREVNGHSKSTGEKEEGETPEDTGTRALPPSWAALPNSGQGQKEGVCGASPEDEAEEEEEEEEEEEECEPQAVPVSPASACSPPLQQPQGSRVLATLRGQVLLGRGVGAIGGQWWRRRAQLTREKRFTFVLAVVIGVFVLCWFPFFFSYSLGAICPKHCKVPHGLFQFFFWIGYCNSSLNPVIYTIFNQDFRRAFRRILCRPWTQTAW

[7] = biological target: 5-hydroxytryptamine receptor 2A (Rattus norvegicus, UniProt P14842); assay: Antagonist activity at 5HT2A receptor in rat aortic rings assessed as reduction in 5-HT-induced contraction
Sequence of 5-hydroxytryptamine receptor 2A (Rattus norvegicus, UniProt P14842) (P14842 whole entry): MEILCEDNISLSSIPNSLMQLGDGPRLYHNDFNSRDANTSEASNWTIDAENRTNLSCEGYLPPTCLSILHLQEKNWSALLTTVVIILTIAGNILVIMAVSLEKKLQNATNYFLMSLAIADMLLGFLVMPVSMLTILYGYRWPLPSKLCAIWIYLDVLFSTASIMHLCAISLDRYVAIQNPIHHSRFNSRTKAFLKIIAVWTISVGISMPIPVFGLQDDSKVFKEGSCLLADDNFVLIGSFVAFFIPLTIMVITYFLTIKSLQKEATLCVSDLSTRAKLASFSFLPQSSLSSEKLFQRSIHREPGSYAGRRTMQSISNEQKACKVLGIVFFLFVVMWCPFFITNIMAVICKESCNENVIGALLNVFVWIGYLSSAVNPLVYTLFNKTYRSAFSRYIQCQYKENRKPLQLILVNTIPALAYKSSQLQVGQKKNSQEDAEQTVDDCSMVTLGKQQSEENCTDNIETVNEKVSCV

[8] = biological target: T2, 5-hydroxytryptamine receptor 1A (Homo sapiens, UniProt P08908)
T2 sequence (P08908 whole entry): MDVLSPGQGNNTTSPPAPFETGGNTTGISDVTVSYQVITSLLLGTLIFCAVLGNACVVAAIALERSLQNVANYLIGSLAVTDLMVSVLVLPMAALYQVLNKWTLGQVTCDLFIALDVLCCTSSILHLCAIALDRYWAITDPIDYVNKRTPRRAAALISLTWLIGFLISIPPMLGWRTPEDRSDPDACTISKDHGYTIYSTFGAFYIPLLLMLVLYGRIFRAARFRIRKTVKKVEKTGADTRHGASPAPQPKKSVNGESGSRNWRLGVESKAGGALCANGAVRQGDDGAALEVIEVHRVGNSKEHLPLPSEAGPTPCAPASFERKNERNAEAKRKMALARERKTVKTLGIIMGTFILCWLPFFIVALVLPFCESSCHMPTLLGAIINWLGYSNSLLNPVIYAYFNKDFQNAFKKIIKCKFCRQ
Description: Binding affinity to 5HT1A receptor (unknown origin)

[9] = biological target: T2, 5-hydroxytryptamine receptor 1A; assay: Agonist activity at human 5HT1A receptor (unknown origin) expressed in CHO cells by [35S]GTPgammaS binding assay; assay type: functional, cell-based
[10] = biological target: T3, 5-hydroxytryptamine receptor 2C (Homo sapiens, UniProt P28335)
T3 sequence (P28335 whole entry): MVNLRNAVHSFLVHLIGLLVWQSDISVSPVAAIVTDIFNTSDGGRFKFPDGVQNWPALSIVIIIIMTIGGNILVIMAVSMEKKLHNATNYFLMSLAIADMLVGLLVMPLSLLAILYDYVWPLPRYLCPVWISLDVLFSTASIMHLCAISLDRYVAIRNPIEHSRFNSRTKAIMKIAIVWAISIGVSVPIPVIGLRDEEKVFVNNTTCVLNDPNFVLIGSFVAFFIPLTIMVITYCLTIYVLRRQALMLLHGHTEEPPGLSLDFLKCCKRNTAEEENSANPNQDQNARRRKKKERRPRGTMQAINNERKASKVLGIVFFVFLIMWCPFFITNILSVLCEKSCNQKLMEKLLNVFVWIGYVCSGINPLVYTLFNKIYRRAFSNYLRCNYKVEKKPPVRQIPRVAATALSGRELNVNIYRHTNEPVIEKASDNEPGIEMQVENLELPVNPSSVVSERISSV
Description: Binding affinity to 5HT2C receptor (unknown origin)

Heart = assay: Cardiotoxicity in Langendorff-perfused Sprague-Dawley rat heart assessed as effect on left ventricle pressure up to 10 uM; assay type: toxicity, tissue-based
hERG (KCNH2) = hERG (KCNH2) (Homo sapiens, UniProt Q12809); assay: Inhibition of human ERG at 3 uM by whole cell based electrophysiology assay
Sequence of hERG (KCNH2) (Q12809 whole entry): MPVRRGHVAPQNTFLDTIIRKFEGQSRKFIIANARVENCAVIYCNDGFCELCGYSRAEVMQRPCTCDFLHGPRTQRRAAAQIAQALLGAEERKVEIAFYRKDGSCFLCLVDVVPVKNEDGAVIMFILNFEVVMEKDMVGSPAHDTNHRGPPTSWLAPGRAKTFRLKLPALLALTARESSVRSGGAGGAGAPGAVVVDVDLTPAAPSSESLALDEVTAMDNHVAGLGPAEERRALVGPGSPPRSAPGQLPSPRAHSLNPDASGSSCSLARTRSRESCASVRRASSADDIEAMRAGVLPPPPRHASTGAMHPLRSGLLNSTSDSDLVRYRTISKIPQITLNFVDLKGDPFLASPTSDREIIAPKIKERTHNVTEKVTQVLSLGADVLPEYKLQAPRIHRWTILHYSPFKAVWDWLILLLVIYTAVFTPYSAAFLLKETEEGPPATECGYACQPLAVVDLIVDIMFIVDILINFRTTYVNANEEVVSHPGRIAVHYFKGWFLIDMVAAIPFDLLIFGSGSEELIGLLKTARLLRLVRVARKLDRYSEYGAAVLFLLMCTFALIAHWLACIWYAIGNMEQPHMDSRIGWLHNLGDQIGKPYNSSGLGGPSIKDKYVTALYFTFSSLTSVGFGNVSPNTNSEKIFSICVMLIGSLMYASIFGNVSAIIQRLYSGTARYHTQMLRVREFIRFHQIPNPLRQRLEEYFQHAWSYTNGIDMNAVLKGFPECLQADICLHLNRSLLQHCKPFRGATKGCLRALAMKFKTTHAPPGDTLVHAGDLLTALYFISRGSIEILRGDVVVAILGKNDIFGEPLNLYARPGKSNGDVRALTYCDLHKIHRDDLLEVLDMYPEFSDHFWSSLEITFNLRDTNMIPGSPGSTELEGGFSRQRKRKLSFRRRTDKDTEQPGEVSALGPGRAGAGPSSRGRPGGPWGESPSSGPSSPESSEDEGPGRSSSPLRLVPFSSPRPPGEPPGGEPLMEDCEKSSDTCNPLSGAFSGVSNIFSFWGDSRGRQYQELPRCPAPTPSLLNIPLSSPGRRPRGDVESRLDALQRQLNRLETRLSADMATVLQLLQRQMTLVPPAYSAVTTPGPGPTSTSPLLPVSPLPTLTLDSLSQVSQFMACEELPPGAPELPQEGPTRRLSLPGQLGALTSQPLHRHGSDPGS

- Ki (D(2) dopamine receptor): > 1000 nM
- Ki [4]: 66 nM
- Ki [6]: 150 nM
- IC50 [7]: 2600 nM
- Ki [8]: 99 nM
- EC50 [9]: 1800 nM
- Ki [10]: > 1000 nM
SMILES: O=C(NCCCCN1CCN(c2ccccc2)CC1)c1ccc2ncccc2c1
- Activity (Mus musculus [1]): Non-toxic
- Activity (Mus musculus [2]): Non-toxic
- Activity (Mus musculus [3]): Toxic
- Activity (Mus musculus [5]): Toxic
- Activity (Heart): Non-toxic
- inhibition at 3 µM (hERG (KCNH2)): 24%
